Assay results as given in patent US11779600B2, “Methods of treating or preventing alzheimer's disease and associated conditions” (CEDARS-SINAI MEDICAL CENTER, priority 2016, dated 2023).

Tests used:
Type in all cases: cell-based, mouse
iNOS = iNOS expression in macrophages by quantitative ICC; settings: 24 hours treatment, then fAβ1-42 for 30 min; quantitative ICC (FIG. 16D)
Experimental: To test amyloid-β phagocytosis by macrophage, in repeated experiments monocytes were isolated from the bone marrow of wild-type mice (n=18 mice) and differentiated into macro-phage by 7-day cultivation in complete RPMI-1640 medium (#21870; Life Technologies) with 10% serum and 20 ng/ml MCSF (#315-02; PeproTech). Bone marrow-derived macrophages (MΦBM) were generated from femurs and tibiae cultured for 6-7 days in complete RPMI 1640 medium (Life Technologies) with 10% FBS, 100 U/ml penicillin, 100 μg/ml streptomycin, 2 mM L-glutamine and 20 ng/ml MCSF (PeproTech). Primary cultures of macrophage were then plated at 1.2×10^5 cells per well (3-4 wells for each condition) in 24-well tissue-culture plates on glass cover-slips overnight. […] The fluorescent signal and its total area were determined and quantified by the conversion of individual images to greyscale and standardizing to baseline using histogram-based thresholds with NIH ImageJ software. […]
The expression of inducible nitric oxide synthase (iNOS), a hallmark of the proinflammatory M1 macrophage phenotype, in different treatment groups was assessed next (FIG. 16C-16D). […] Quantitative ICC assays confirmed a significant ˜1.3-fold increase in iNOS expression by minocycline-treated macrophages, and a substantial 48% reduction in Aβ^1-42 phagocytosis. […]

[1] = test system: bone marrow-derived macrophages (MΦ^BM); test: Fibrillar Aβ1-42 phagocytosis assay in bone marrow-derived macrophages; settings: 24 hours treatment, then fAβ1-42 for 30 min; quantitative ICC (FIG. 16E)
Experimental: Lyophilized non-fluoro amyloid-β1-42 peptide (#20276; Anaspec) was initially monomerized by dissolving it in ice-cold HFIP (hexafluoroisopropanol) (#52512; Sigma) to a final concentration of 1 mM and then aliquoted in sterile siliconized microcentrifuge tubes. The HFIP was first evaporated while in the sterile hood and then under vacuum conditions in a SpeedVac for 2 h to remove any trace of HFIP; the peptide film was stored at −20° C. until use. To induce fibril formation, fluoro (HiLyte647; #64161; Anaspec) and non-fluoro amyloid-β1-42 films were resuspended in media to which 10% of sterile NaOH 60 mM was first added and the media were vortexed for 30 s. Then, a sterile 45% H2O and a sterile 45% solution of 20 mM NaH2PO4+Na2HPO4 (pH 7.4) were added, and the media were vortexed again and incubated on a shaker for 2 weeks at 37° C. Pre-formed amyloid-β1-42 fibrils were then sonicated for 60 s and diluted to 100 nM using the same media prior to the phagocytosis assay.
To test amyloid-β phagocytosis by macrophage, in repeated experiments monocytes were isolated from the bone marrow of wild-type mice (n=18 mice) and differentiated into macro-phage by 7-day cultivation in complete RPMI-1640 medium (#21870; Life Technologies) with 10% serum and 20 ng/ml MCSF (#315-02; PeproTech). Bone marrow-derived macrophages (MΦBM) were generated from femurs and tibiae cultured for 6-7 days in complete RPMI 1640 medium (Life Technologies) with 10% FBS, 100 U/ml penicillin, 100 μg/ml streptomycin, 2 mM L-glutamine and 20 ng/ml MCSF (PeproTech). Primary cultures of macrophage were then plated at 1.2×10^5 cells per well (3-4 wells for each condition) in 24-well tissue-culture plates on glass cover-slips overnight. Next, macrophages were either treated with 30 μg/ml GA (Copaxone®; TEVA Neuroscience), Brefeldin A (BFA; Sigma, 1X), or 10 μM Minocycline (Sigma) for the duration of 1, 3, or 24 h, or not treated (control group). Before addition of fibrillar amyloid-β1-42, the cells were chilled in a 4° C. ice bath for 5 min; immediately after addition of the preformed fibrillar amyloid-β1-42 (100 nM), the plates were centrifuged at 515g in 25° C. followed by incubation at 37° C. for 30 or 60 min. The cells were then rinsed with amyloid-β-free medium to remove non-incorporated amyloid-β and later washed twice with PBS. Methanol (99.8%) at −20° C. for 20 min or 4% paraformaldehyde at room temperature for 12 min was used for fixation of the cells followed by repeated washes with PBS. […] The fluorescent signal and its total area were determined and quantified by the conversion of individual images to greyscale and standardizing to baseline using histogram-based thresholds with NIH ImageJ software. […]

[2] = test system: primary cortical neurons (CN); test: Synaptic toxicity of Aβ1-42 assemblies in primary cortical neurons; settings: for reduction in co-localized VGluT1/PSD95+ puncta number: 250 nM Aβ assemblies, 12 hours, vs CN in medium alone (FIG. 1D); for decrease of co-localized VGluT1/PSD95+ puncta synaptic number: overnight exposure (FIG. 2E)
Experimental: Initially, synaptic toxicity induced by stable, structurally defined fAβ1-42 and oAβ1-42 forms in primary cortical neurons (CN) was tested. Neurons were incubated for 12 hours with 250 nM of Aβ assemblies or with medium only (vehicle) during day 8 of culture. An extensive loss of pre- and post-synaptic (VGluT1 & PSD-95, respectively) area and number, induced by both f/oAβ1-42 forms, was clearly detected (FIG. 1A-C). Synaptic density quantification indicated a significant 50% reduction in co-localized VGluT1/PSD95^+ puncta number following fAβ1-42. Moreover, we detected a 70% decrease in puncta number by oAβ1-42 when compared with CN in medium alone (FIG. 1D; p<0.0001). […] Next, Aβ-induced neuritic retraction was assessed. CN were immunolabeled with anti-Tuj1 and the total neuritic length per neuron was precisely quantified (FIG. 2A-D). Overnight incubation of f/oAβ1-42 led to a massive neuritic retraction compared with control CN group (FIG. 2B vs. 2A). Whether untreated- and GA-treated BM-derived MΦ (CD68^+ cells) could prevent synaptic and neuritic loss was tested next. Primary CN and MΦ were co-cultured for 48 h and introduced Aβ1-42 forms during the last 12 hours of co-culture. […] Quantitative analysis of co-localized VGluT1/PSD95^+ puncta synaptic number confirmed decreases of 32% and 65% after overnight exposure to fAβ1-42 or oAβ1-42, respectively (FIG. 2E). […] The in vivo effects of Aβ accumulation on synaptopathy and possible synaptic rescue by GA immunization or grafted BM-CD115^+ Mo was assessed. Pre- and post-synaptic alterations in coronal brain sections of 13m old AD^+(ADtg) mice that received these immune-modulation interventions were quantified (FIG. 3A-D). High magnification z-stack images obtained from 19 predefined areas in hippocampus and entorhinal cortex were captured in respective Bregma regions (FIG. 3A-D).
P1 neurons are prepared as previously reported. Briefly, cortical neurons (CN) are obtained from 1 day old neonatal mice, dissociated, resuspended and plated in 24-well culture plate at 5×10^4/ml cells. BM-MΦ are obtained as described herein. In short, mononuclear enriched BM-derived cells are isolated from C57BL/6 mice and differentiated into MΦ for 7 days. […] Cultures are processed for quantification of synaptic density and neuritic length. […] Microphotographs are shot using a Carl Zeiss ApoTome-equipped Axio Imager ZI fluorescence microscope. Synaptic puncta number and synaptic immunoreactive area are quantified with Puncta Analyzer. Total neurite length is measured using NeuriteTracer. At least 3 coverslips, 36 images and 150 neurons for each condition are analyzed. Average puncta number, synaptic area per image or per neuron will be calculated. […] In brief, on day 9 of culture, spontaneous network activity of CN is recorded for 60 min to gain baseline. […]

Molecule: CN(C)c1ccc(O)c2c1C[C@H]1C[C@H]3[C@H](N(C)C)C(O)=C(C(N)=O)C(=O)[C@@]3(O)C(O)=C1C2=O [minocycline, Minocycline]
- increase in iNOS expression (iNOS): ~1.3 fold
- reduction in Aβ1-42 phagocytosis [1]: 48%

Molecule: fAβ1-42: pre-formed fibrils of amyloid-β1-42 peptide
- reduction in co-localized VGluT1/PSD95+ puncta number [2]: 50%
- decrease of co-localized VGluT1/PSD95+ puncta synaptic number [2]: 32%

Molecule: oAβ1-42: stabilized oligomeric amyloid-β1-42 assemblies
- reduction in co-localized VGluT1/PSD95+ puncta number [2]: 70%
- decrease of co-localized VGluT1/PSD95+ puncta synaptic number [2]: 65%
